The text below walks through data of US20240083861A1, “HSD17B13 INHIBITORS AND USES THEREOF” (FL2022-001, Inc., priority 2020, published 2024).

In this experiment the target is T1, Recombinant human HSD17B13 enzyme (Homo sapiens, UniProt Q7Z5P4).
T1 sequence (Q7Z5P4 20-300): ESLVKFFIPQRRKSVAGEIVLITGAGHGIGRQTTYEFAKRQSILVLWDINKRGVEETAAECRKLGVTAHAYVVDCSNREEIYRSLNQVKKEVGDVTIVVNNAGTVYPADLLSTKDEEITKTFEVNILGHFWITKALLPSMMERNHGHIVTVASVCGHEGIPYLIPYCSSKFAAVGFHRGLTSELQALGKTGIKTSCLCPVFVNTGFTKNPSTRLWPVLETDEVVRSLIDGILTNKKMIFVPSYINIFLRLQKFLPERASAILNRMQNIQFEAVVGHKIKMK
Description: HSD17b13 NAD(P)H-Glo biochemical assay. To be noted: 50 uM estradiol, 1 mM NAD+, NAD(P)H-Glo luminescence; read-out: HSD17β13 IC50. The method, boiled down: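 Recombinant human HSD17B13 in 20 mM Tris pH7.4 with 0.002% Tween-20 and 0.02% BSA was preincubated with inhibitor for 20 minutes at RT. The reaction ran 3 hours at 37° C with 50 uM estradiol and 1 mM NAD+ (final). NADH formed was detected by NAD(P)H-Glo luminescence after 1 hour at RT.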

With `CNC(=O)N1CCN(c2ncc3c(-c4cc(C(F)(F)F)c(F)c(O)c4F)nn(C)c3n2)CC12CCC2` [Compound 20.01, 8-(3-(2,4-Difluoro-3-hydroxy-5-(trifluoromethyl)phenyl)-1-methyl-1H-pyrazolo[3,4-d]pyrimidin-6-yl)-N-methyl-5,8-diazaspiro[3.5]nonane-5-carboxamide], the IC50 (usually the concentration at which inhibition is half-maximal) was below 100 nM.
In the case of `CN(C)C(=O)N1CCN(c2ncc3c(-c4cc(C(F)(F)F)c(F)c(O)c4F)nn(C)c3n2)CC12CCC2` [Compound 20.02, 8-(3-(2,4-Difluoro-3-hydroxy-5-(trifluoromethyl)phenyl)-1-methyl-1H-pyrazolo[3,4-d]pyrimidin-6-yl)-N,N-dimethy1-5,8-diazaspiro[3.5]nonane-5-carboxamide] it was below 100 nM.
For the compound `COC(=O)N1CCN(c2ncc3c(-c4cc(C(F)(F)F)c(F)c(O)c4F)nn(C)c3n2)CC12CCC2` [Compound 20.03, Methyl 8-(3-(2,4-difluoro-3-hydroxy-5-(trifluoromethyl)phenyl)-1-methyl-1H-pyrazolo[3,4-d]pyrimidin-6-yl)-5,8-diazaspiro[3.5]nonane-5-carboxylate], the IC50 was below 100 nM.
In the case of `C[C@@H]1CN(C(=O)Nc2ccccc2)CCN1c1cc2c(cn1)c(-c1cc(C(F)(F)F)c(F)c(O)c1F)nn2C` [Compound 21, (R)-4-(3-(2,4-Difluoro-3-hydroxy-5-(trifluoromethyl)phenyl)-1-methyl-1H-pyrazolo[4,3-c]pyridin-6-yl)-3-methyl-N-phenylpiperazine-1-carboxamide], the IC50 was below 100 nM.
For the compound `Cn1nc(-c2cc(C(F)(F)F)c(F)c(O)c2F)c2cnc(N3CCN(C(=O)Nc4ccccc4)CC3)cc21` [Compound 21.01, 4-(3-(2,4-Difluoro-3-hydroxy-5-(trifluoromethyl)phenyl)-1-methyl-1H-pyrazolo[4,3-c]pyridin-6-y1)-N-phenylpiperazine-1-carboxamide], the IC50 is below 100 nM.
`C[C@H]1CN(C(=O)Nc2ccccc2)CCN1c1cc2c(cn1)c(-c1cc(C(F)(F)F)c(F)c(O)c1F)nn2C` [Compound 21.02, (S)-4-(3-(2,4-Difluoro-3-hydroxy-5-(trifluoromethyl)phenyl)-1-methyl-1H-pyrazolo[4,3-c]pyridin-6-y1)-3-methyl-N-phenylpiperazine-1-carboxamide]: the IC50 was below 100 nM.
In the case of `Cn1nc(-c2cc(C(F)(F)F)c(F)c(O)c2F)c2cnc(N3CCN(C(=O)Nc4ccccc4)CC3(C)C)cc21` [Compound 21.03, 4-(3-(2,4-Difluoro-3-hydroxy-5-(trifluoromethyl)phenyl)-1-methyl-1H-pyrazolo[4,3-c]pyridin-6-y1)-3,3-dimethyl-N-phenylpiperazine-1-carboxamide] it was below 100 nM; in that of `Cn1nc(-c2cc(C(F)(F)F)c(F)c(O)c2F)c2cnc(N3CCN(C(=O)Nc4ccccc4)CC34CC4)cc21` [Compound 21.04, 4-(3-(2,4-Difluoro-3-hydroxy-5-(trifluoromethyl)phenyl)-1-methyl-1H-pyrazolo[4,3-c]pyridin-6-y1)-N-phenyl-4,7-diazaspiro[2.5]octane-7-carboxamide], below 100 nM; in that of `Cn1nc(-c2cc(C(F)(F)F)c(F)c(O)c2F)c2cnc(N3CCN(C(=O)Nc4ccccc4)CC34CCC4)cc21` [Compound 21.05, 5-(3-(2,4-Difluoro-3-hydroxy-5-(trifluoromethyl)phenyl)-1-methyl-1H-pyrazolo[4,3-c]pyridin-6-y1)-N-phenyl-5,8-diazaspiro[3.5]nonane-8-carboxamide], below 100 nM.
The value for `C[C@H]1CN(c2cc3c(cn2)c(-c2cc(C(F)(F)F)c(F)c(O)c2F)nn3C)CCN1C(=O)Nc1ccccc1` [Compound 21.06, (S)-4-(3-(2,4-Difluoro-3-hydroxy-5-(trifluoromethyl)phenyl)-1-methyl-1H-pyrazolo[4,3-c]pyridin-6-y1)-2-methyl-N-phenylpiperazine-1-carboxamide] was below 100 nM.
